Source: patent EP4745137A1 (Gluetacs Therapeutics (Shanghai) Co., Ltd., priority 2023, dated 2025)

Tests used:
[1] = biological target: T1, GSPT1 (Homo sapiens, UniProt P15170+Q96SW2); assay: Western-blot assay of substrate protein degradation in hPBMCs, GSPT1; format: cell-based; conditions: 24 hours of compound treatment, 50 nM and 500 nM tested (concentration behind the class not stated)
T1 construct: endogenous in cells; host or cells: hPBMCs (Milecell Biotechnologies)

[2] = biological target: T2, IKZF3 (Homo sapiens, UniProt Q96SW2+Q9UKT9); assay: Western-blot assay of substrate protein degradation in hPBMCs, IKZF3; format: cell-based; conditions: 24 hours of compound treatment, 50 nM and 500 nM tested (concentration behind the class not stated)
T2 construct: endogenous in cells; host or cells: hPBMCs (Milecell Biotechnologies)

[3] = biological target: T3, IKZF2 (Homo sapiens, UniProt Q96SW2+Q9UKS7); assay: Western-blot assay of substrate protein degradation in hPBMCs, IKZF2; format: cell-based; conditions: 24 hours of compound treatment, 50 nM and 500 nM tested (concentration behind the class not stated)
T3 construct: endogenous in cells; host or cells: hPBMCs (Milecell Biotechnologies)

[4] = biological target: T4, human Cereblon WT GST-tagged protein (Homo sapiens, UniProt Q96SW2); assay: CRBN-binding affinity by HTRF (CEREBLON BINDING kit); conditions: HTRF inhibitory activity, CEREBLON BINDING kit; read-out: HTRF IC50
T4 construct: purchased CISBIO 64BDCRBNPEH

[5] = biological target: T5, CK1α (Homo sapiens, UniProt P48729+Q96SW2); assay: Western-blot assay of substrate protein degradation in hPBMCs, CK1α; format: cell-based; conditions: 24 hours of compound treatment, 50 nM and 500 nM tested (concentration behind the class not stated)
T5 construct: endogenous in cells; host or cells: hPBMCs (Milecell Biotechnologies)

[6] = biological target: T6, WEE1 (Homo sapiens, UniProt P30291+Q96SW2); assay: Western-blot assay of substrate protein degradation in hPBMCs, WEE1; format: cell-based; conditions: 24 hours of compound treatment, 50 nM and 500 nM tested (concentration behind the class not stated)
T6 construct: endogenous in cells; host or cells: hPBMCs (Milecell Biotechnologies)

[7] = biological target: T7, IKZF1 (Homo sapiens, UniProt Q13422+Q96SW2); assay: Western-blot assay of substrate protein degradation in hPBMCs, IKZF1; format: cell-based; conditions: 24 hours of compound treatment, 50 nM and 500 nM tested (concentration behind the class not stated)
T7 construct: endogenous in cells; host or cells: hPBMCs (Milecell Biotechnologies)
T7 sequence (Q13422 whole entry): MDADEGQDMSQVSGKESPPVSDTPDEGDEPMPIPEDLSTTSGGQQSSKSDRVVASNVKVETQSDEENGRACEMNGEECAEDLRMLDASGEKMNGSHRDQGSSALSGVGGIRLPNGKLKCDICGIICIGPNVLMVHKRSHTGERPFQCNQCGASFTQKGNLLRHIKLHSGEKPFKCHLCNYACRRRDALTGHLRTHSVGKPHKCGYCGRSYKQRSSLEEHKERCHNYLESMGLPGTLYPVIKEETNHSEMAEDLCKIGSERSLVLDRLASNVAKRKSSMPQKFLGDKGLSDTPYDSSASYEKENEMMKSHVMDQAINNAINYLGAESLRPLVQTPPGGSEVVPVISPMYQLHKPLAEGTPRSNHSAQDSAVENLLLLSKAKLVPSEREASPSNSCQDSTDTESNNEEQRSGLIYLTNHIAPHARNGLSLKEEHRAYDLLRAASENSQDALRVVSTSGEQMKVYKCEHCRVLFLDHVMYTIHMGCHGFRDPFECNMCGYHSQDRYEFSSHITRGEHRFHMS
T7 sequence (Q96SW2 whole entry): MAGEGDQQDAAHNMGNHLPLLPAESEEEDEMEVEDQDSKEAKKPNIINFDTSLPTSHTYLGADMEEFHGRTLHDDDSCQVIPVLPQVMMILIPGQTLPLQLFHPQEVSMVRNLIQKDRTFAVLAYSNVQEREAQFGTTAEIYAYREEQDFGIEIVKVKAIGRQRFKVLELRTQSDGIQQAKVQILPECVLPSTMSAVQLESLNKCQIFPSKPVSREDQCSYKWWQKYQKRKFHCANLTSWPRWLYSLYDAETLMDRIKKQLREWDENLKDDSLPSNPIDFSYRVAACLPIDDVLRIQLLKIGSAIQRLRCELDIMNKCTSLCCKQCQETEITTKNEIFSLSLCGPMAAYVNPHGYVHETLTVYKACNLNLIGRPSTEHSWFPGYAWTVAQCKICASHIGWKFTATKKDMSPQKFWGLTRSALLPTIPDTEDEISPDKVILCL
T7 sequence (Q16531 whole entry partner): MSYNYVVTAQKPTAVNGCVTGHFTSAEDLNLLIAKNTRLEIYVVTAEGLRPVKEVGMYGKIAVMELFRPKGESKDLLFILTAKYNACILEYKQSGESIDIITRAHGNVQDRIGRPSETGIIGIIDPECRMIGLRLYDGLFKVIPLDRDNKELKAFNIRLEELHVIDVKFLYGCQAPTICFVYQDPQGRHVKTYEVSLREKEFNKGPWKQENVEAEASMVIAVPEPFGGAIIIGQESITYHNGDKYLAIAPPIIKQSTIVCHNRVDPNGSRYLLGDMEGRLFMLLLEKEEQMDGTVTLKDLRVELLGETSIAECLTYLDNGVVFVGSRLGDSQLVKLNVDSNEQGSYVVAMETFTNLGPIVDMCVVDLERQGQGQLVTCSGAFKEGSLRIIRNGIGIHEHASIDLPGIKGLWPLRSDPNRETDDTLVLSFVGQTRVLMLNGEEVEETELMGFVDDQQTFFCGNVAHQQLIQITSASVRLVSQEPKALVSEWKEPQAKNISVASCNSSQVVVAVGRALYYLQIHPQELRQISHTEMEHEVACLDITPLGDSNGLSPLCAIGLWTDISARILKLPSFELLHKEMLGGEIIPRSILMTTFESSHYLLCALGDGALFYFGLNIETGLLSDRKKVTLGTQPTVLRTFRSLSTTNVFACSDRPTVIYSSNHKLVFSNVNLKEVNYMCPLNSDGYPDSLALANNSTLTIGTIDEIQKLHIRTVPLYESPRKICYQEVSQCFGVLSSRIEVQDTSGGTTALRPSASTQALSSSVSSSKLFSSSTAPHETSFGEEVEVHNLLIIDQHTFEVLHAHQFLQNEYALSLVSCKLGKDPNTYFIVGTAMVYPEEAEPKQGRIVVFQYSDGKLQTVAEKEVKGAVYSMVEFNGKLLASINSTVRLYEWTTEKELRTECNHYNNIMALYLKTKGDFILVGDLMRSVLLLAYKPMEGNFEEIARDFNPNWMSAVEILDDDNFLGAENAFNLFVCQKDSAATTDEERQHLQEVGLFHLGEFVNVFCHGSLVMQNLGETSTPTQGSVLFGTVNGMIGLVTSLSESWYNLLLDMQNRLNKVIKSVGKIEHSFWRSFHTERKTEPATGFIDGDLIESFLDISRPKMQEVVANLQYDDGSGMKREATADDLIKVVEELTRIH

T5 sequence (P48729 whole entry): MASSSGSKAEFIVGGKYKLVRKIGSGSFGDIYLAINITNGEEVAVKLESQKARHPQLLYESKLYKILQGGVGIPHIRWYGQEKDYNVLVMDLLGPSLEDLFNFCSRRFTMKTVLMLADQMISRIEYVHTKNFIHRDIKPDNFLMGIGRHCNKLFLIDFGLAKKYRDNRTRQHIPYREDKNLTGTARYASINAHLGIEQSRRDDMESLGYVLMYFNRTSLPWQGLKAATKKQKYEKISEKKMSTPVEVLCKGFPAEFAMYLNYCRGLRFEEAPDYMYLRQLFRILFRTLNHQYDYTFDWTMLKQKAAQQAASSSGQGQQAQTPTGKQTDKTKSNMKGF
T5 sequence (Q96SW2 whole entry): as the sequence (Q96SW2 whole entry) above
T5 sequence (Q16531 whole entry partner): as the sequence (Q16531 whole entry partner) above
T3 sequence (Q9UKS7 whole entry): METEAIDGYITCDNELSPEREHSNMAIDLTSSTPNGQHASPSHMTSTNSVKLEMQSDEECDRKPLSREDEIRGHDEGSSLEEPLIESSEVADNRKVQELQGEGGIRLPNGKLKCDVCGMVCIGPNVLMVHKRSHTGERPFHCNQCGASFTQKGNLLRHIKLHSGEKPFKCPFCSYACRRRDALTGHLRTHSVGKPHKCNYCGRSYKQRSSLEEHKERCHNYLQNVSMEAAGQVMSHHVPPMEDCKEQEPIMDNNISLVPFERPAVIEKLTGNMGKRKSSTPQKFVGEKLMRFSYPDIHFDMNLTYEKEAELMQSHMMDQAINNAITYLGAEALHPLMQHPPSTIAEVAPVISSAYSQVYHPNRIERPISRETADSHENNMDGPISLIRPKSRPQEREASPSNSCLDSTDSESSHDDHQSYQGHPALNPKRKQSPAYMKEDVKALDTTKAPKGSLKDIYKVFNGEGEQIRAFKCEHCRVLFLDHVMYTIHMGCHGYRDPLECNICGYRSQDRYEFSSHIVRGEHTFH
T3 sequence (Q96SW2 whole entry): as the sequence (Q96SW2 whole entry) above
T3 sequence (Q16531 whole entry partner): as the sequence (Q16531 whole entry partner) above
T4 sequence (Q96SW2 whole entry): as the sequence (Q96SW2 whole entry) above
T1 sequence (P15170 whole entry): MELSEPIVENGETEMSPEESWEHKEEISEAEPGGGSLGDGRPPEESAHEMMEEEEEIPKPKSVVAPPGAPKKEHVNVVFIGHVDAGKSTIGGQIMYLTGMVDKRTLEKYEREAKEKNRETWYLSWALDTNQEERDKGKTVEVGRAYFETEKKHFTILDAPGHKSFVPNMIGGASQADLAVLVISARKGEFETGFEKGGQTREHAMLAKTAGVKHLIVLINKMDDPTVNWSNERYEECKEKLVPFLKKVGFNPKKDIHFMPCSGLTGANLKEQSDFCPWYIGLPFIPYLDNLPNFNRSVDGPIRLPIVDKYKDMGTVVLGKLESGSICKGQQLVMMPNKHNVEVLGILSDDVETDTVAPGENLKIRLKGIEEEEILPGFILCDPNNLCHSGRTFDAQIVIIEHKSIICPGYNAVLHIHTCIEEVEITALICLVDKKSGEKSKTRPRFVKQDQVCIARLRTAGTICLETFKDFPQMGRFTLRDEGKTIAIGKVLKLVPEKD
T1 sequence (Q96SW2 whole entry): as the sequence (Q96SW2 whole entry) above
T1 sequence (Q16531 whole entry partner): as the sequence (Q16531 whole entry partner) above
T6 sequence (P30291 whole entry): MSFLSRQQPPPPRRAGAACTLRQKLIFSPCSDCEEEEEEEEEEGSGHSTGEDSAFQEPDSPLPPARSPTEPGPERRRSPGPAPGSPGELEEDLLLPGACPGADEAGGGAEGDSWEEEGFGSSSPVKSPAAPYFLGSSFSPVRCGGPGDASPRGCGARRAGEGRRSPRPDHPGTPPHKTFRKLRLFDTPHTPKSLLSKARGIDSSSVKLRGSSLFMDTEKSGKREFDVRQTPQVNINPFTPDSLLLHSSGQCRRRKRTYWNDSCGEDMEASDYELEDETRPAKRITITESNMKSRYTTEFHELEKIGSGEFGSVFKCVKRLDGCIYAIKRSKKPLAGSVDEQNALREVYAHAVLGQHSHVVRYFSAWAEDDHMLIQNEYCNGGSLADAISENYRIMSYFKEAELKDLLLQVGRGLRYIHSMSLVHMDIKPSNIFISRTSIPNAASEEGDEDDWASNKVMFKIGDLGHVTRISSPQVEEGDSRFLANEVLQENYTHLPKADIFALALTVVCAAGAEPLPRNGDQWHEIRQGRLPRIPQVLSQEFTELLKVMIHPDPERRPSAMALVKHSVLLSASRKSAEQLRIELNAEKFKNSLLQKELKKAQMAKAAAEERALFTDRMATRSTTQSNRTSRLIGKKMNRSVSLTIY
T6 sequence (Q96SW2 whole entry): as the sequence (Q96SW2 whole entry) above
T6 sequence (Q16531 whole entry partner): as the sequence (Q16531 whole entry partner) above

Row | Compound | IC50 [4] [µM] | GSPT1 substrate protein remaining % [1] | IKZF3 substrate protein remaining % [2] | IKZF2 substrate protein remaining % [3] | CK1a substrate protein remaining % [5] | Weel substrate protein remaining % [6] | IKZF 1 substrate protein remaining % [7]
1 | Cc1nc(C2CCN(Cc3ccc4c(c3)C(=O)N(C3CCC(=O)NC3=O)C4=O)CC2)c2c3c(sc2n1)CCC3 (centres unmarked) [GT-06651, 2-(2,6-dioxopiperidin-3-yl)-5-((4-(2-methyl-6,7-dihydro-5H-cyclopenta[4,5]thieno[2,3-d]pyrimidin-4-yl)piperidin-1-yl)methyl)isoindoline-1,3-dione] | 1 to 1.5 | B (80%< substrate protein remaining %≤ 100%) | B (80%< substrate protein remaining %≤ 100%) | A (0% ≤ substrate protein remaining % ≤ 80%) | B (80%< substrate protein remaining %≤ 100%) | A (0% ≤ substrate protein remaining % ≤ 80%) | B (80%< substrate protein remaining %≤ 100%)
2 | Cc1sc2ncnc(C3=CCN(Cc4ccc5c(c4)C(=O)N(C4CCC(=O)NC4=O)C5=O)CC3)c2c1C (centres unmarked) [GT-06657, 5-((4-(5,6-dimethylthieno[2,3-d]pyrimidin-4-yl)-3,6-dihydropyridin-1 (2H)-yl)methyl)-2-(2,6-dioxopiperidin-3-yl)isoindoline-1,3-dione] | 1 to 1.5 | A (0% ≤ substrate protein remaining % ≤ 80%) | B (80%< substrate protein remaining %≤ 100%) | B (80%< substrate protein remaining %≤ 100%) | B (80%< substrate protein remaining %≤ 100%) | A (0% ≤ substrate protein remaining % ≤ 80%) | A (0% ≤ substrate protein remaining % ≤ 80%)
3 | O=C1CCC(N2C(=O)c3ccc(CN4CC=C(c5ncnc6scc(-c7ccccc7)c56)CC4)cc3C2=O)C(=O)N1 (centres unmarked) [GT-06676, 2-(2,6-dioxopiperidin-3-yl)-5-((4-(5-phenylthieno[2,3-d]pyrimidin-4-yl)-3,6-dihydropyridin-1(2H)-yl)methyl)isoindoline-1,3-dione] | 1 to 1.5 | B (80%< substrate protein remaining %≤ 100%) | B (80%< substrate protein remaining %≤ 100%) | B (80%< substrate protein remaining %≤ 100%) | A (0% ≤ substrate protein remaining % ≤ 80%) | A (0% ≤ substrate protein remaining % ≤ 80%) | B (80%< substrate protein remaining %≤ 100%)

Second part, led by results:

Row | IC50 [4] [µM] | Compound | GSPT1 substrate protein remaining % [1] | IKZF3 substrate protein remaining % [2] | IKZF2 substrate protein remaining % [3] | CK1a substrate protein remaining % [5] | Weel substrate protein remaining % [6] | IKZF 1 substrate protein remaining % [7]
4 | 0.5 to 1 | O=C1CCC(N2C(=O)c3ccc(CN4CC=C(c5ncnc6sccc56)CC4)cc3C2=O)C(=O)N1 (centres unmarked) [GT-06653, 2-(2,6-dioxopiperidin-3-yl)-5-((4-(thieno[2,3-d]pyrimidin-4-yl)-3,6-dihydropyridin-1(2H)-yl)methyl)isoindoline-1,3-dione] | A (0% ≤ substrate protein remaining % ≤ 80%) | A (0% ≤ substrate protein remaining % ≤ 80%) | B (80%< substrate protein remaining %≤ 100%) | B (80%< substrate protein remaining %≤ 100%) | A (0% ≤ substrate protein remaining % ≤ 80%) | A (0% ≤ substrate protein remaining % ≤ 80%)
5 | 0.5 to 1 | Cc1cc2c(C3=CCN(Cc4ccc5c(c4)C(=O)N(C4CCC(=O)NC4=O)C5=O)CC3)ncnc2s1 (centres unmarked) [GT-06655, 2-(2,6-dioxopiperidin-3-yl)-5-((4-(6-methylthieno[2,3-d]pyrimidin-4-yl)-3,6-dihydropyridin-1(2H)-yl)methyl)isoindoline-1,3-dione] | A (0% ≤ substrate protein remaining % ≤ 80%) | A (0% ≤ substrate protein remaining % ≤ 80%) | A (0% ≤ substrate protein remaining % ≤ 80%) | B (80%< substrate protein remaining %≤ 100%) | A (0% ≤ substrate protein remaining % ≤ 80%) | A (0% ≤ substrate protein remaining % ≤ 80%)
